Test results reported in US10568876B2, “Tetrahydroisoquinoline derivatives useful as inhibitors of diacylglyceride O-acyltransferase 2” (Merck Sharp & Dohme Corp., priority 2014, dated 2020).

The compounds below were run against hDGAT2 (Homo sapiens (Human), UniProt Q96PD7) (assay: DGAT2 Enzymatic Activity Assay). Conditions: hDGAT2 Sf-9 membrane prep; 25 μM diolein, 10 μM oleoyl-CoA; triolein product by LC/MS/MS; read-out: IC50 values for inhibition of DGAT2.
Format: biochemical
How it was run: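 Membranes from Sf-9 cells expressing untagged hDGAT2 (10 ng/μL) incubated at room temperature with 25 μM diolein and 10 μM oleoyl-CoA in 100 mM Tris pH 7.0, 20 mM MgCl2, 5% ethanol. Triolein product quantified by LC/MS/MS against spiked internal standard; IC50 from 4-parameter sigmoidal fit.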

Chain of hDGAT2 (Q96PD7 whole entry): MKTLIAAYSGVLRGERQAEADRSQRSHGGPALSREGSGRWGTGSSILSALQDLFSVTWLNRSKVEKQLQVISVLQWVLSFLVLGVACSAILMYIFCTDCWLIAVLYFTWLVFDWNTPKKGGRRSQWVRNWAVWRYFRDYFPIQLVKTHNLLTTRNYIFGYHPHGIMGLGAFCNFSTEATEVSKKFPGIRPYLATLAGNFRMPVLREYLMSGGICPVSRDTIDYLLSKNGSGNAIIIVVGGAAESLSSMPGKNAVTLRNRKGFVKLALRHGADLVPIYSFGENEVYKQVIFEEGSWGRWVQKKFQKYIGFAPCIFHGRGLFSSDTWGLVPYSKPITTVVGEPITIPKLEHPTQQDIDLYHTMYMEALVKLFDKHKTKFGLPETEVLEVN

Row | Structure (SMILES) | IC50
1 | CC(C)(C)NC(=O)N1CCc2c(-c3cccc(C(N)=O)c3)ccc(CNC(=O)[C@@H]3C[C@H]3c3ccccc3)c2C1 (relative stereo) [Example 42, N-(tert-butyl)-5-(3-carbamoylphenyl)-8-(((trans)-2-phenylcyclopropanecarboxamido)methyl)-3,4-dihydroisoquinoline-2(1H)-carboxamide] | 0.155 µM
2 | CCOCC(=O)N1CCc2c(-c3cccc(C(=O)OC)c3)ccc(CNC(=O)C3CC3c3ccccc3)c2C1 (centres unmarked) [Example 136, methyl 3-(2-(2-ethoxyacetyl)-8-((2-phenylcyclopropanecarboxamido)methyl)-1,2,3,4-tetrahydroisoquinolin-5-yl)benzoate] | 2.17 µM
3 | COc1cccc(-c2ccc(CNC(=O)C3CC3c3ccccc3)c3c2CCN(Cc2ccccc2)C3)c1 (centres unmarked) [Example 90, N-((2-benzyl-5-(3-methoxyphenyl)-1,2,3,4-tetrahydroisoquinolin-8-yl)methyl)-2-phenylcyclopropanecarboxamide] | 4.85 µM
4 | COc1cccc(-c2ccc(CNC(=O)[C@H]3C[C@@H]3c3cccnc3)c3c2CCN(C(=O)NC(C)(C)C)C3)c1 (relative stereo) [Example 19, N-(tert-butyl)-5-(3-methoxyphenyl)-8-(((trans)-2-(pyridin-3-yl)cyclopropanecarboxamido)methyl)-3,4-dihydroisoquinoline-2(1H)-carboxamide] | 0.0085 µM
5 | COC(=O)c1cccc(-c2ccc(CNC(=O)C3CC3c3ccccc3)c3c2CCN(C(=O)c2c[nH]nc2C2CC2)C3)c1 (centres unmarked) [Example 121, methyl 3-(2-(3-cyclopropyl-1H-pyrazole-4-carbonyl)-8-((2-phenylcyclopropanecarboxamido)methyl)-1,2,3,4-tetrahydroisoquinolin-5-yl)benzoate] | 0.632 µM
6 | COc1cccc(-c2ccc(CNC(=O)[C@@H]3C[C@H]3c3ccccc3)c3c2CCN(C(=O)C(CO)C(F)(F)F)C3)c1 (some centres unmarked) [Example 118] | 1.31 µM

Results, then the compound that gave them:

Row | IC50 | Structure (SMILES)
7 | 0.098 µM | Cc1noc(C2CC2C(=O)NCc2ccc(-c3cccc(-n4cccn4)c3)c3c2CN(C(=O)N[C@@]2(C)CCS(=O)(=O)C2)CC3)n1 (stereo partly drawn) [Example 79, 5-(3-(1H-pyrazol-1-yl)phenyl)-N-((S)-3-methyl-1,1-dioxidotetrahydrothiophen-3-yl)-8-((2-(3-methyl-1,2,4-oxadiazol-5-yl)cyclopropanecarboxamido)methyl)-3,4-dihydroisoquinoline-2(1H)-carboxamide]
8 | 2.29 µM | COC[C@H]1CCC[C@H]1NC(=O)CN1CCc2c(-c3cccc(OC(F)(F)F)c3)ccc(CNC(=O)C3CC3c3nc(C)no3)c2C1 (stereo in doubt) [Example 86, N-((2-(2-(((trans)-2-(methoxymethyl)cyclopentyl)amino)-2-oxoethyl)-5-(3-(trifluoromethoxy)phenyl)-1,2,3,4-tetrahydroisoquinolin-8-yl)methyl)-2-(3-methyl-1,2,4-oxadiazol-5-yl)cyclopropanecarboxamide]
9 | 0.0155 µM | COC(=O)c1cccc(-c2ccc(CNC(=O)C3CC3c3nc(C)no3)c3c2CCN(C(=O)NC(C)(C)C)C3)c1 (centres unmarked) [Example 21, methyl 3-(2-(tert-butylcarbamoyl)-8-((2-(3-methyl-1,2,4-oxadiazol-5-yl)cyclopropanecarboxamido)methyl)-1,2,3,4-tetrahydroisoquinolin-5-yl)benzoate]
10 | 0.238 µM | Cc1noc(C2CC2C(=O)NCc2ccc(-c3cccc(OC(F)(F)F)c3)c3c2CN(C(=O)NC2CCS(=O)(=O)C2)CC3)n1 (centres unmarked) [Example 76, N-(1,1-dioxidotetrahydrothiophen-3-yl)-8-((2-(3-methyl-1,2,4-oxadiazol-5-yl)cyclopropanecarboxamido)methyl)-5-(3-(trifluoromethoxy)phenyl)-3,4-dihydroisoquinoline-2(1H)-carboxamide]
11 | 0.003 µM | COc1cccc(-c2ccc(CNC(=O)[C@@H]3C[C@H]3c3nc(C)no3)c3c2CCN(C(=O)NC(C)(C)C)C3)c1 (relative stereo) [Example 11, N-(tert-butyl)-5-(3-methoxyphenyl)-8-(((trans)-2-(3-methyl-1,2,4-oxadiazol-5-yl)cyclopropanecarboxamido)methyl)-3,4-dihydroisoquinoline-2(1H)-carboxamide]
